Test results reported in the supplement of paper PMC13380429.
± gives the standard deviation of the averaged measurements.

Tests used:
Conditions in all cases: 72 h
[1] = test system: Caco-2; test: cell viability relative to DMSO; higher = less toxic
[2] = test system: Calu-3; test: as above
[3] = test system: HepG2; test: as above
[4] = test system: U2OS; test: as above
[5] = test system: Vero E6; test: as above
[6] = test system: Caco-2; test: relative viability EC50 (midpoint between 100% and the lowest measured viability); higher = less toxic
[7] = test system: Calu-3; test: as above
[8] = test system: HepG2; test: as above
[9] = test system: U2OS; test: as above
[10] = test system: Vero E6; test: as above
[11] = test system: Caco-2; test: drug sensitivity score (DSS) for viability; higher = more toxic; extreme values may be limits of the assay
[12] = test system: Calu-3; test: as above
[13] = test system: HepG2; test: as above
[14] = test system: U2OS; test: as above
[15] = test system: Vero E6; test: as above

Structure (SMILES)	cell viability ([1]; 1 nM)	cell viability ([1]; 10 nM)	cell viability ([1]; 100 nM)	cell viability ([1]; 1000 nM)	cell viability ([1]; 10000 nM)	cell viability ([2]; 1 nM)	cell viability ([2]; 10 nM)	cell viability ([2]; 100 nM)	cell viability ([2]; 1000 nM)	cell viability ([2]; 10000 nM)	cell viability ([3]; 1 nM)	cell viability ([3]; 10 nM)	cell viability ([3]; 100 nM)	cell viability ([3]; 1000 nM)	cell viability ([3]; 10000 nM)	cell viability ([4]; 1 nM)	cell viability ([4]; 10 nM)	cell viability ([4]; 100 nM)	cell viability ([4]; 1000 nM)	cell viability ([4]; 10000 nM)	cell viability ([5]; 1 nM)	cell viability ([5]; 10 nM)	cell viability ([5]; 100 nM)	cell viability ([5]; 1000 nM)	cell viability ([5]; 10000 nM)	relative viability EC50 [6]	relative viability EC50 [7]	relative viability EC50 [8]	relative viability EC50 [9]	relative viability EC50 [10]	drug sensitivity score [11]	drug sensitivity score [12]	drug sensitivity score [13]	drug sensitivity score [14]	drug sensitivity score [15]
Oc1ccc2c3c1O[C@H]1c4[nH]c5ccccc5c4C[C@@]4(O)[C@@H](C2)N(CC2CC2)CC[C@]314 [naltrindole]	102%	94.6%	98.1%	96.5%	106%	98.5%	98.5%	103%	101%	83.9%	103%	97.7%	101%	106%	91.7%	98.7%	100%	102%	111%	97.9%	95.9%	102%	105%	95.4%	92.1%	> 10 µM	> 10 µM	> 10 µM	> 10 µM	> 10 µM	0	0.3	0	0	0
CN1C(=O)N[C@H](Cc2c[nH]c3c(Cl)cccc23)C1=O [necrostatin-2]	99%	112%	99.4%	108%	102%	97.1%	110%	93.9%	96.9%	90.4%	112%	99.3%	95.3%	91.3%	108%	103%	109%	105%	107%	95.1%	104%	102%	103%	99.1%	97.8%	> 10 µM	> 10 µM	> 10 µM	> 10 µM	> 10 µM	0	0	0	0	0
CC[C@H]1[C@@H](O)[C@@H]2[C@H](CC[C@]3(C)[C@@H]([C@H](C)CCC(=O)O)CC[C@@H]23)[C@@]2(C)CC[C@@H](O)C[C@@H]12 [obeticholic-acid]	98.7 ± 5.8%	104 ± 4.4%	95 ± 8.5%	94.8 ± 1.6%	95.5 ± 1.6%	106 ± 6.7%	100 ± 2.4%	105.9 ± 0.57%	97.5 ± 6.6%	98.2 ± 7.2%	100 ± 4.6%	102 ± 17%	95.5 ± 8.1%	103 ± 3.2%	104.8 ± 0.14%	102%	104%	96.1%	104%	99.2%	109 ± 20%	94.8 ± 3.3%	99.8 ± 12%	97.3 ± 0.57%	103 ± 7.1%	> 10 µM	> 10 µM	> 10 µM	> 10 µM	> 10 µM	0.25 ± 0.35	0	0	0	0
